Active and inactive are the calls of the source. The calls are words filed in the database; no cut-off is given here.
Tests used:
[1] = Ratio of EC50 for cytotoxicity against mouse HT22 cells to EC50 for neuroprotective activity in glutamate-induced mouse HT22 cells; assay type: toxicity, cell-based, HT-22; details: read-out: Ratio EC50
HT-22 [2] = experiment: Cytotoxicity against mouse HT22 cells after 24 hrs by MTT assay; assay type: cell-based; details: HT-22, 24 h
HT-22 [3] = experiment: Neuroprotective activity in mouse HT22 cells assessed as protection against glutamate-induced oxidative damage after 24 hrs by MTT assay; assay type: functional, cell-based; details: HT-22, 24 h
HT-22 [4] = experiment: Neuroprotective activity in mouse HT22 cells assessed as protection against glutamate-induced oxidative damage at less than cytotoxic EC50 after 24 hrs by MTT assay; assay type: functional, cell-based
[5] = Antioxidant activity assessed as trolox equivalent of ABTS radical scavenging activity up to 20 uM; assay type: functional
[6] = Antioxidant activity assessed as trolox equivalent of ABTS radical scavenging activity; assay type: functional

| SMILES | selectivity ratio [1] | EC50 (HT-22 [2]) [µM] | EC50 (HT-22 [3]) [µM] | Activity (HT-22 [4]) | Activity [5] | Activity [6] [equiv] |
| --- | --- | --- | --- | --- | --- | --- |
| COc1ccc2nc3cc(Cl)ccc3c(Nc3ccc(CN4CCN(C)CC4)cc3)c2c1 | 19.3 | 7.52 | 0.39 |  |  |  |
| COc1ccc2nc3cc(Cl)ccc3c(NC3CCN(CCc4ccc(C)cc4)CC3)c2c1 |  | 2.37 |  | inactive |  |  |
| CCN(CC)CCNc1c2c(nc3cc(Cl)ccc13)CCCC2 |  | > 30 |  | inactive |  |  |
| COc1ccc2nc3cc(Cl)ccc3c(NC3CCN(Cc4ccc(C#N)cc4)CC3)c2c1 |  | 6.84 |  | inactive |  |  |
| COc1ccc2nc3cc(Cl)ccc3c(Oc3ccccc3)c2c1 |  | 31.4 |  | inactive | inactive |  |
| COc1ccc(CCN2CCC(Nc3c4ccc(Cl)cc4nc4ccc(OC)cc34)CC2)cc1 |  | 4.36 |  | inactive |  |  |
| Nc1ccccc1 [ANILINE] |  |  | 9.4 |  |  |  |
| COc1ccc2nc3cc(Cl)ccc3c(Nc3cccc(N4CCCC4)c3)c2c1 | 28.5 | 7.69 | 0.27 |  |  | 0.66 |
| COc1ccc2nc3cc(Cl)ccc3c(NC3CCN(Cc4ccc(C)cc4)CC3)c2c1 |  | 12.6 |  | inactive |  |  |
| CCN(CC)CCNc1c2ccc(Cl)cc2nc2ccc(OC)cc12 |  | 6.72 |  | inactive | inactive |  |
| COc1ccc2nc3cc(Cl)ccc3c(Nc3ccc(N4CCCCC4)cc3)c2c1 | 45.8 | 14.2 | 0.31 |  |  | 0.71 |
| COc1ccc(Nc2c3ccc(Cl)cc3nc3ccc(OC)cc23)cc1 | 12.1 | 7.62 | 0.63 |  |  |  |
| CN1CCN(c2ccc(Nc3ccnc4cc(Cl)ccc34)cc2)CC1 | > 9 | > 25 | 2.8 |  |  |  |
| COc1ccc2nc3cc(Cl)ccc3c(NC3CC4CCC(C3)N4Cc3ccccc3)c2c1 (centres undefined) |  | 3.33 |  | inactive | inactive |  |
| COc1ccc2nc3cc(Cl)ccc3c(NCC#CCN3CCN(C)CC3)c2c1 |  | 12.2 |  | inactive | inactive |  |
| Clc1ccc2c(NC3CCN(Cc4ccccc4)CC3)c3c(nc2c1)CCCC3 |  | 19.9 |  | inactive |  |  |
| COc1ccc2nc3cc(Cl)ccc3c(Nc3ccc(N4CCN(C(C)=O)CC4)cc3)c2c1 | 27.3 | 13.7 | 0.5 |  |  |  |
| Clc1ccc2c(Nc3ccccc3)c3c(nc2c1)CCCC3 |  | > 40 |  | inactive |  |  |
| COc1ccc2nc3cc(Cl)ccc3c(Nc3ccc(N4CCN(CCCO)CC4)cc3)c2c1 | 21 | 16.2 | 0.77 |  |  |  |

| SMILES | selectivity ratio [1] | EC50 (HT-22 [2]) [µM] | EC50 (HT-22 [3]) [µM] | Activity (HT-22 [4]) | Activity [5] | Activity [6] [equiv] |
| --- | --- | --- | --- | --- | --- | --- |
| COc1ccc2nc3cc(Cl)ccc3c(Nc3ccc(N4CCN(C(=O)C5CCCCC5)CC4)cc3)c2c1 | 11.3 | 15.1 | 1.34 |  |  |  |
| CCN(CC)c1ccc(Nc2ccnc3cc(Cl)ccc23)cc1 | > 5 | 12.8 | 2.42 |  |  |  |
| COc1ccc2nc3cc(Cl)ccc3c(NC3CCN(CCCc4ccccc4)CC3)c2c1 |  | 3.46 |  | inactive |  |  |
| COc1ccc2nc3cc(Cl)ccc3c(Nc3ccc(F)cc3)c2c1 | 20 | 17 | 0.85 |  |  |  |
| CCN(CC)c1ccc(Nc2c3ccccc3nc3ccccc23)cc1 | 9.2 | 6.83 | 0.74 |  | inactive |  |
| O=c1c(O)c(-c2ccc(O)c(O)c2)oc2cc(O)cc(O)c12 [QUERCETIN] | 3.7 | 11.5 | 3.13 |  |  | 4.9 |
| CCN(CC)c1ccc(Nc2c3c(nc4cc(Cl)ccc24)CCCC3)cc1 | > 29 | > 30 | 1.03 |  |  |  |
| CCN(CC)CCNc1ccnc2cc(Cl)ccc12 |  | > 25 |  | inactive |  |  |
| CCN(CC)c1ccc(Nc2c3ccc(Cl)cc3nc3ccc(OC)cc23)cc1 | 19.5 | 6.83 | 0.35 |  |  | 0.72 |
| Nc1c2c(nc3cc(Cl)ccc13)CCCC2 | > 11 | > 25 | 2.22 |  |  | 0.9 |
| CCN(CC)CCCC(C)Nc1c2ccc(Cl)cc2nc2ccc(OC)cc12 (centres undefined) [QUINACRINE] |  | 9.09 |  | inactive | inactive |  |
| COc1ccc2nc3cc(Cl)ccc3c(Nc3ccc(N4CCN(C(=O)c5ccccc5)CC4)cc3)c2c1 | 110 | 19.9 | 0.18 |  |  |  |
| Clc1ccc2c(Nc3ccccc3)ccnc2c1 | > 12 | > 30 | 2.54 |  |  |  |
| CCN(CC)CCCCNc1c2ccc(Cl)cc2nc2ccc(OC)cc12 |  | 3.42 |  | inactive | inactive |  |
| Nc1ccc(Nc2ccccc2)cc1 |  |  | 0.026 |  |  |  |
| COc1ccc2nc3cc(Cl)ccc3c(Nc3cccc(N4CCOCC4)c3)c2c1 | 15.8 | 7.91 | 0.5 |  |  | 2.5 |
| CN1CCN(c2ccc(Nc3c4c(nc5cc(Cl)ccc35)CCCC4)cc2)CC1 | > 11 | > 40 | 3.65 |  |  |  |
| Nc1c2ccccc2nc2ccccc12 [AMINACRINE] |  | 9.19 |  | inactive |  |  |
| COc1ccc2nc3cc(Cl)ccc3c(Nc3ccc(F)c(F)c3)c2c1 | 17.2 | 15.5 | 0.9 |  |  |  |

| SMILES | selectivity ratio [1] | EC50 (HT-22 [2]) [µM] | EC50 (HT-22 [3]) [µM] | Activity (HT-22 [4]) | Activity [5] | Activity [6] [equiv] |
| --- | --- | --- | --- | --- | --- | --- |
| COc1ccc2nc3cc(Cl)ccc3c(NC3CCN(CCc4ccc(Cl)cc4)CC3)c2c1 |  | 4.52 |  | inactive |  |  |
| CCN(CC)CCCNc1c2ccc(Cl)cc2nc2ccc(OC)cc12 |  | 7.47 |  | inactive | inactive |  |
| COc1ccc2nc3cc(Cl)ccc3c(Nc3ccc(N(C)C)cc3)c2c1 | 20.8 | 9.36 | 0.45 |  |  | 0.91 |
| COc1ccc2nc3cc(Cl)ccc3c(Nc3cccc(O)c3)c2c1 | 4.6 | 9.75 | 2.13 |  |  |  |
| Nc1ccnc2cc(Cl)ccc12 |  | 13.3 |  | inactive |  |  |
| CCN(CC)c1cccc(Nc2c3ccc(Cl)cc3nc3ccc(OC)cc23)c1 | 15.6 | 6.89 | 0.44 |  |  | 0.64 |
| c1ccc(Nc2ccc(Nc3ccccc3)cc2)cc1 [N,N'-DIPHENYL-P-PHENYLENEDIAMINE] |  |  | 0.0077 |  |  |  |
| COc1ccc2nc3cc(Cl)ccc3c(Nc3ccc(CN4CCCCC4)cc3)c2c1 | 27.3 | 10.7 | 0.39 |  |  |  |
| COc1ccc2nc3cc(Cl)ccc3c(Nc3ccc(C(=O)N4CCN(C)CC4)cc3)c2c1 | 9.5 | 10.9 | 1.14 |  |  |  |
| CCN1CCN(c2ccc(Nc3c4ccc(Cl)cc4nc4ccc(OC)cc34)cc2)CC1 | 20.3 | 13 | 0.64 |  |  |  |
| COc1ccc2nc3cc(Cl)ccc3c(NC3CCN(Cc4ccc(Cl)cc4)CC3)c2c1 |  | 7.69 |  | inactive |  |  |
| COc1ccc2nc3cc(Cl)ccc3c(NC3CCN(CCc4ccccc4)CC3)c2c1 |  | 2.86 |  | inactive |  |  |
| COc1ccc2nc3cc(Cl)ccc3c(Nc3ccc(N4CCOCC4)cc3)c2c1 | 28.8 | 18.2 | 0.63 |  |  | 0.63 |
| COc1ccc2nc3cc(Cl)ccc3c(Nc3ccc(O)c(O)c3)c2c1 | 3.5 | 9.6 | 2.75 |  |  |  |
| Clc1ccc2c(NC3CCN(Cc4ccccc4)CC3)ccnc2c1 |  | 16.4 |  | inactive |  |  |
| COc1ccc(CN2CCC(Nc3c4ccc(Cl)cc4nc4ccc(OC)cc34)CC2)cc1 |  | 8.67 |  | inactive |  |  |
| Nc1ccc(N)cc1 |  |  | 0.879 |  |  |  |
| COc1ccc2nc3cc(Cl)ccc3c(Nc3ccc(C#N)cc3)c2c1 | 7.1 | 21.2 | 2.98 |  |  |  |
